Like-named read-outs stand apart in the source and are kept apart here.
Biological target: T1, human farnesoid X receptor (Homo sapiens, UniProt Q96RI1)
T1 construct: CMX-farnesoid X receptor (full length human farnesoid X receptor); expressed in transfected cells; host or cells: CV-1 African Green Monkey Kidney cells
T1 sequence (Q96RI1 1-472 isoform Q96RI1-2): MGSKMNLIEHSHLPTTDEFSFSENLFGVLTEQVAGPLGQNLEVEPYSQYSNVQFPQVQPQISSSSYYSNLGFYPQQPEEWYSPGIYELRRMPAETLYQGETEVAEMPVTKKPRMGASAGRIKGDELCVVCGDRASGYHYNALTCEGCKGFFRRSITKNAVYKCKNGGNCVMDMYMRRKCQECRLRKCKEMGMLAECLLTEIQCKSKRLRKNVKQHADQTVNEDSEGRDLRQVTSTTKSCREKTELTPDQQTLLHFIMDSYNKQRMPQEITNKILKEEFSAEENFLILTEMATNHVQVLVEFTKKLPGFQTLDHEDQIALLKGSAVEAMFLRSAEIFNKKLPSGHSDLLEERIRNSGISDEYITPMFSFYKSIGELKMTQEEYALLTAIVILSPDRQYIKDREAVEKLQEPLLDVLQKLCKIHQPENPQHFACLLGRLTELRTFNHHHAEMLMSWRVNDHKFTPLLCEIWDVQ
T1 sequence (P19793 1-462 partner): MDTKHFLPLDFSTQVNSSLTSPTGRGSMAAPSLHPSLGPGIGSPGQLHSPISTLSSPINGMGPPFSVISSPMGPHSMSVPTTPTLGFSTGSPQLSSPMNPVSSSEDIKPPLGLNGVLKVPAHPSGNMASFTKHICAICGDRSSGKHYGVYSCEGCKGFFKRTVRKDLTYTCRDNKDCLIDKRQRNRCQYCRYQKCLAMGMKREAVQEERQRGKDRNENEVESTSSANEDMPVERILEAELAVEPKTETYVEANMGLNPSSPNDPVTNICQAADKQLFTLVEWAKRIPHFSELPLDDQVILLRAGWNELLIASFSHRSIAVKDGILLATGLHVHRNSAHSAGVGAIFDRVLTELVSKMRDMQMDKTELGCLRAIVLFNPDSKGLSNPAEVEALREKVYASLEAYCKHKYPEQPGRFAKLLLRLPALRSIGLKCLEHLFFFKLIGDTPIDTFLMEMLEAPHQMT
Assay: FXR in vitro assays (farnesoid X receptor/ECREx7 co-transfection assay, TR-FRET assay), Table I
Type: cell-based
Conditions: for Emax: read-out: % Efficacy
Experimental: The basic co-transfection protocol for measuring the farnesoid X receptor activity is as follows. CV-1 African Green Monkey Kidney cells were plated 24 hours before transfection to achieve approximately 70-80 percent confluency. […] The assay was allowed to continue for an additional 18-20 hours, after which the cells were lysed, with lysis buffer (1% triton X 100, 10% glycerol, 5 mM Dithiothreitol, 1 mM EGTA, 25 mM Tricine, pH 7.8) and the luciferase activity measured in the presence of Luciferase assay buffer (0.73 mM ATP, 22.3 mm Tricine, 0.11 mM EGTA, 0.55 mM Luciferin, 0.15 mM Coenzyme A, 0.5 mM HEPES, 10 mM Magnesium sulphatc) on a standard luminometer plate reader (PE Biosystems, NorthStar Reader), using recommended operating instructions and conditions.
The dose response curves are generated from an 8 point curve with concentrations differing by ½ LOG units. Each point represents the average of 4 wells of data from a 384 well plate. A curve for the data is generated by using the equation:
Y=Bottom+(Top−Bottom)/(1+10̂((Log EC50−X)*HillSlope))
The EC50/IC50 is therefore defined as the concentration at which an agonist or antagonist elicits a response that is half way between the Top (maximum) and Bottom (baseline) values. The EC50/IC50 values represented are the averages of at least 3 independent experiments.

[1] = agonist activity, one or more of the in vitro assays, read-out: EC50

| Structure (SMILES) | EC50 [1] [nM] | EC50 [nM] | Emax [%] |
| --- | --- | --- | --- |
| CC(C)OC(=O)C1=CN(C(=O)NCCN2CCOCC2)CC(C)(C)c2c1[nH]c1ccccc21 [Example 22, 1-methylethyl 1,1-dimethyl-3-{[(2-morpholin-4-ylethyl)amino]carbonyl}-1,2,3,6-tetrahydroazepino[4,5-b]indole-5-carboxylate] | 1000 to 10000 | – | – |
| CC(C)OC(=O)C1=CN(C(=O)c2ccc(F)c(F)c2)CC(C)(C)c2c1[nH]c1cc(OC(=O)NCCN3CCCC3)ccc21 [Example 126, 1-methylethyl 3-[(3,4-difluorophenyl)carbonyl]-1,1-dimethyl-8-({[(2-pyrrolidin-1-ylethyl)amino]carbonyl}oxy)-1,2,3,6-tetrahydroazepino[4,5-b]indole-5-carboxylate] | – | 10 to 100 | > 100 |
| CC(C)OC(=O)C1=CN(C(=O)C2CCCCC2)CC(C)(C)c2c1[nH]c1ccccc21 [Example 1, 1-Methylethyl 1,1-Dimethyl-1,2,3,6-Tetrahydroazepino [4,5-b]Indole-5-CarboxylateE] | 10 to 100 | – | > 100 |
| CC(C)OC(=O)C1=CN(C(=O)c2cccc(CN3CCOCC3)c2)CC(C)(C)c2c1[nH]c1ccccc21 [Example 125, 1-methylethyl 1,1-dimethyl-3-{[3-(morpholin-4-ylmethyl)phenyl]carbonyl}-1,2,3,6-tetrahydroazepino[4,5-b]indole-5-carboxylate] | – | – | > 100 |
| CC(C)OC(=O)C1=CN(C(=O)c2ccccc2F)CC(C)(C)c2c1[nH]c1ccccc21 [Example 63, 1-methylethyl 3-[(2-fluorophenyl)carbonyl]-1,1-dimethyl-1,2,3,6-tetrahydroazepino[4,5-b]indole-5-carboxylate] | 10 to 100 | – | > 100 |
| CC(C)OC(=O)C1=CN(C(=O)NC2CCCCCC2)CC(C)(C)c2c1[nH]c1ccccc21 [Example 46, 1-methylethyl 3-[(cycloheptylamino)carbonyl]-1,1-dimethyl-1,2,3,6-tetrahydroazepino[4,5-b]indole-5-carboxylate] | 10 to 100 | – | > 100 |
| CC(C)OC(=O)C1=CN(C(=O)c2ccc(F)c(F)c2)CC(C)(C)c2c1[nH]c1cc(OCCCN(C)C)ccc21 [Example 99, 1-methylethyl 3-[(3,4-difluorophenyl)carbonyl]-8-{[3-(dimethylamino)propyl]oxy}-1,1-dimethyl-1,2,3,6-tetrahydroazepino[4,5-b]indole-5-carboxylate] | 100 to 1000 | – | 40 to 60 |
| CC(C)OC(=O)C1=CN(C(=O)c2cccc(CN3CCCC3)c2)CC(C)(C)c2c1[nH]c1ccccc21 [Example 117, 1-methylethyl 1,1-dimethyl-3-{[3-(pyrrolidin-1-ylmethyl)phenyl]carbonyl}-1,2,3,6-tetrahydroazepino[4,5-b]indole-5-carboxylate] | – | – | > 100 |
| CC(C)OC(=O)C1=CN(C(=O)N2CCN(C)CC2)CC(C)(C)c2c1[nH]c1ccc(F)cc21 [Example 32, 1-methylethyl 9-fluoro-1,1-dimethyl-3-[(4-methylpiperazin-1-yl)carbonyl]-1,2,3,6-tetrahydroazepino[4,5-b]indole-5-carboxylate] | 100 to 1000 | – | > 100 |
| CC(C)OC(=O)C1=CN(C(=O)c2ccc(F)c(F)c2)CC(C)(C)c2c1[nH]c1ccc(OCc3ccccc3)cc21 [Example 115, 1-methylethyl 3-[(3,4-difluorophenyl)carbonyl]-1,1-dimethyl-9-[(phenylmethyl)oxy]-1,2,3,6-tetrahydroazepino[4,5-b]indole-5-carboxylate] | 10 to 100 | – | > 100 |
| CCN(CC)CCCOc1cccc(C(=O)N2C=C(C(=O)OC(C)C)c3[nH]c4ccccc4c3C(C)(C)C2)c1 [Example 188, 1-methylethyl 3-[(3-{[3-(diethylamino)propyl]oxy}phenyl)carbonyl]-1,1-dimethyl-1,2,3,6-tetrahydroazepino[4,5-b]indole-5-carboxylate] | 1000 to 10000 | – | > 100 |
| CCN(CC)CCCNC(=O)Oc1ccc2c3c([nH]c2c1)C(C(=O)OC(C)C)=CN(C(=O)c1ccc(F)c(F)c1)CC3(C)C [Example 112, 1-methylethyl 8-[({[3-(diethylamino)propyl]amino}carbonyl)oxy]-3-[(3,4-difluorophenyl)carbonyl]-1,1-dimethyl-1,2,3,6-tetrahydroazepino[4,5-b]indole-5-carboxylate] | – | 1000 to 10000 | > 100 |
| CC(C)OC(=O)C1=CN(C(=O)c2ccc(CN(C)C)cc2)CC(C)(C)c2c1[nH]c1ccccc21 [Example 107, 1-methylethyl 3-({4-[(dimethylamino)methyl]phenyl}carbonyl)-1,1-dimethyl-1,2,3,6-tetrahydroazepino[4,5-b]indole-5-carboxylate] | 1000 to 10000 | – | > 100 |
| Cc1ccccc1C(=O)N1C=C(C(=O)OC(C)C)c2[nH]c3ccccc3c2C(C)(C)C1 [Example 68, 1-methylethyl 1,1-dimethyl-3-[(2-methylphenyl)carbonyl]-1,2,3,6-tetrahydroazepino[4,5-b]indole-5-carboxylate] | 10 to 100 | – | > 100 |
| COc1ccc(C(=O)N2C=C(C(=O)OC(C)C)c3[nH]c4ccccc4c3C(C)(C)C2)cc1 [Example 89, 1-methylethyl 1,1-dimethyl-3-{[4-(methyloxy)phenyl)carbonyl}-1,2,3,6-tetrahydroazepino[4,5-b]indole-5-carboxylate] | 1 to 10 | – | > 100 |
| CC(C)OC(=O)C1=CN(C(=O)c2cccc(CN3CCN(S(=O)(=O)c4ccccc4)CC3)c2)CC(C)(C)c2c1[nH]c1ccccc21 [Example 167, 1-methylethyl 1,1-dimethyl-3-[(3-{[4-(phenylsulfonyl)piperazin-1-yl]methyl}phenyl)carbonyl]-1,2,3,6-tetrahydroazepino[4,5-b]indole-5-carboxylate] | 100 to 1000 | – | > 100 |
| CNC(=O)Oc1ccc2c3c([nH]c2c1)C(C(=O)OC(C)C)=CN(C(=O)c1ccc(F)c(F)c1)CC3(C)C [Example 102, 1-methylethyl 3-[(3,4-difluorophenyl)carbonyl]-1,1-dimethyl-8-{[(methylamino)carbonyl]oxy}-1,2,3,6-tetrahydroazepino[4,5-b]indole-5-carboxylate] | – | 10 to 100 | < 40 |
| CC1(C)OCC(COC(=O)C2=CN(C(=O)c3ccc(F)c(F)c3)CC(C)(C)c3c2[nH]c2ccccc32)O1 (stereo not drawn) [Example 122, (2,2-dimethyl-1,3-dioxolan-4-yl)methyl 3-[(3,4-difluorophenyl)carbonyl]-1,1-dimethyl-1,2,3,6-tetrahydroazepino[4,5-b]indole-5-carboxylate] | 100 to 1000 | – | > 100 |
| CC(C)OC(=O)C1=CN(C(=O)c2c(F)ccc(Cl)c2F)CC(C)(C)c2c1[nH]c1ccccc21 [Example 145, 1-methylethyl 3-[(3-chloro-2,6-difluorophenyl)carbonyl]-1,1-dimethyl-1,2,3,6-tetrahydroazepino[4,5-b]indole-5-carboxylate] | 100 to 1000 | – | > 100 |
| CC1(C)CN(C(=O)c2ccc(F)c(F)c2)C=C(C(=O)NC(CO)CO)c2[nH]c3ccccc3c21 [Example 163, 3-[(3,4-difluorophenyl)carbonyl]-N-[2-hydroxy-1-(hydroxymethyl)ethyl]-1,1-dimethyl-1,2,3,6-tetrahydroazepino[4,5-b]indole-5-carboxamide] | 1000 to 10000 | – | > 100 |
| CCN1CCN(Cc2cccc(C(=O)N3C=C(C(=O)OC(C)C)c4[nH]c5ccccc5c4C(C)(C)C3)c2)CC1 [Example 120, 1-methylethyl 3-({3-[(4-ethylpiperazin-1-yl)methyl]phenyl}carbonyl)-1,1-dimethyl-1,2,3,6-tetrahydroazepino[4,5-b]indole-5-carboxylate] | 100 to 1000 | – | > 100 |

— patent US20090203577A1 (EXELIXIS, INC., priority 2005, published 2009)
